#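 Where inhibition never reached the appropriate level, the endpoint shown equals the highest concentration tested. Otherwise, values were interpolated linearly from a five-concentration, 48-hour dose response in 96-well plates. At the GI50, growth is halved.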 Active and inactive are the calls of the source. Rule as the data show it: active = GI50 up to about 1.1 µM and inactive = higher.
# Legend:
# Assay in all cases: DTP human tumour cell line panel, 48 h
# EKVX = test system: EKVX
# SK-OV-3 = test system: SK-OV-3
# SF-539 = test system: SF-539
# ACHN = test system: ACHN
# TK-10 = test system: TK-10
# SK-MEL-5 = test system: SK-MEL-5
# COLO 205 = test system: COLO 205
# HCT-116 = test system: HCT-116
# RXF 631 = test system: RXF 631
# RPMI-8226 = test system: RPMI-8226
# HOP-62 = test system: HOP-62
# SW-620 = test system: SW-620
# LXFL 529 = test system: LXFL 529
# UO-31 = test system: UO-31
# U-251 = test system: U-251
# SN12C = test system: SN12C
# LOX IMVI = test system: LOX IMVI
# CCRF-CEM = test system: CCRF-CEM
# NCI-H460 = test system: NCI-H460
# HL-60 = test system: HL-60
# HOP-92 = test system: HOP-92
# OVCAR-8 = test system: OVCAR-8
# SF-295 = test system: SF-295
# SF-268 = test system: SF-268
# HOP-18 = test system: HOP-18
# DMS-273 = test system: DMS-273
# M14 = test system: M14
# MOLT-4 = test system: MOLT-4
# XF498 = test system: XF498
# NCI-H23 = test system: NCI-H23
# DMS-114 = test system: DMS-114
# A498 = test system: A498
# HCT-15 = test system: HCT-15
# KM-20L2 = test system: KM-20L2
# A549 = test system: A549
# DLD-1 = test system: DLD-1
# NCI-H522 = test system: NCI-H522
# RXF 393 = test system: RXF 393
# K562 = test system: K562
# SK-MEL-28 = test system: SK-MEL-28
# 786-0 = test system: 786-0
# NCI-H226 = test system: NCI-H226
# Malme-3M = test system: Malme-3M
# IGROV-1 = test system: IGROV-1
# HT-29 = test system: HT-29
# OVCAR-4 = test system: OVCAR-4
# UACC-62 = test system: UACC-62
# OVCAR-3 = test system: OVCAR-3
# SNB-19 = test system: SNB-19
# SK-MEL-2 = test system: SK-MEL-2
# KM12 = test system: KM12
# SNB-75 = test system: SNB-75
# SNB-78 = test system: SNB-78
# HCC 2998 = test system: HCC 2998
# M19-MEL = test system: M19-MEL
# OVCAR-5 = test system: OVCAR-5
# UACC-257 = test system: UACC-257
smiles,measurement,setting,value
Nc1ccn(C2OC(C(O)CO)C(O)C2O)c(=O)n1 (stereo not given),GI50,EKVX,> 100 µM (inactive)
same,GI50,SK-OV-3,> 100 µM (inactive)
same,GI50,SF-539,> 100 µM (inactive)
same,GI50,ACHN,> 100 µM (inactive)
same,GI50,TK-10,> 100 µM (inactive)
same,GI50,SK-MEL-5,> 100 µM (inactive)
same,GI50,COLO 205,> 100 µM (inactive)
same,GI50,HCT-116,> 100 µM (inactive)
same,GI50,RXF 631,> 100 µM (inactive)
same,GI50,RPMI-8226,> 100 µM (inactive)
same,GI50,HOP-62,> 100 µM (inactive)
same,GI50,SW-620,> 100 µM (inactive)
same,GI50,LXFL 529,> 100 µM (inactive)
same,GI50,UO-31,69.2 µM (inactive)
same,GI50,U-251,> 100 µM (inactive)
same,GI50,SN12C,> 100 µM (inactive)
same,GI50,LOX IMVI,> 100 µM (inactive)
same,GI50,CCRF-CEM,> 100 µM (inactive)
same,GI50,NCI-H460,> 100 µM (inactive)
same,GI50,HL-60,> 100 µM (inactive)
same,GI50,HOP-92,> 100 µM (inactive)
same,GI50,OVCAR-8,> 100 µM (inactive)
same,GI50,SF-295,> 100 µM (inactive)
same,GI50,SF-268,> 100 µM (inactive)
same,GI50,HOP-18,> 100 µM (inactive)
same,GI50,DMS-273,> 100 µM (inactive)
same,GI50,M14,> 100 µM (inactive)
same,GI50,MOLT-4,> 100 µM (inactive)
same,GI50,XF498,> 100 µM (inactive)
same,GI50,NCI-H23,> 100 µM (inactive)
same,GI50,DMS-114,> 100 µM (inactive)
same,GI50,A498,> 100 µM (inactive)
same,GI50,HCT-15,> 100 µM
same,GI50,KM-20L2,> 100 µM (inactive)
same,GI50,A549,> 100 µM (inactive)
same,GI50,DLD-1,> 100 µM (inactive)
same,GI50,NCI-H522,> 100 µM (inactive)
same,GI50,RXF 393,> 100 µM (inactive)
same,GI50,K562,> 100 µM (inactive)
same,GI50,SK-MEL-28,> 100 µM (inactive)
Cc1ccccc1C(C#N)/C(=N/NC(N)=S)C(=O)Nc1c(C)cccc1C (stereo not given),GI50,EKVX,> 100 µM (inactive)
same,GI50,ACHN,> 100 µM (inactive)
same,GI50,786-0,> 100 µM (inactive)
same,GI50,TK-10,> 100 µM (inactive)
same,GI50,SK-MEL-5,46.3 µM (inactive)
same,GI50,NCI-H226,> 100 µM (inactive)
same,GI50,Malme-3M,83.8 µM (inactive)
same,GI50,IGROV-1,> 100 µM (inactive)
same,GI50,HT-29,> 100 µM (inactive)
same,GI50,COLO 205,> 100 µM (inactive)
same,GI50,HCT-116,> 100 µM (inactive)
same,GI50,RXF 631,> 100 µM (inactive)
same,GI50,OVCAR-4,> 100 µM (inactive)
same,GI50,UACC-62,33.4 µM (inactive)
same,GI50,RPMI-8226,9.12 µM (inactive)
same,GI50,HOP-62,> 100 µM (inactive)
same,GI50,OVCAR-3,> 100 µM (inactive)
same,GI50,SW-620,> 100 µM (inactive)
same,GI50,SNB-19,> 100 µM (inactive)
same,GI50,SK-MEL-2,> 100 µM (inactive)
same,GI50,LXFL 529,> 100 µM (inactive)
same,GI50,UO-31,> 100 µM (inactive)
same,GI50,KM12,> 100 µM (inactive)
same,GI50,U-251,> 100 µM (inactive)
same,GI50,SN12C,> 100 µM (inactive)
same,GI50,SNB-75,> 100 µM (inactive)
same,GI50,LOX IMVI,> 100 µM (inactive)
same,GI50,CCRF-CEM,> 100 µM (inactive)
same,GI50,NCI-H460,> 100 µM (inactive)
same,GI50,HL-60,> 100 µM (inactive)
same,GI50,SNB-78,> 100 µM (inactive)
same,GI50,HOP-92,> 100 µM (inactive)
same,GI50,OVCAR-8,> 100 µM (inactive)
same,GI50,SF-295,> 100 µM (inactive)
same,GI50,SF-268,> 100 µM (inactive)
same,GI50,HOP-18,> 100 µM (inactive)
same,GI50,M14,> 100 µM (inactive)
same,GI50,HCC 2998,> 100 µM (inactive)
same,GI50,M19-MEL,80 µM (inactive)
same,GI50,MOLT-4,88.1 µM (inactive)
same,GI50,XF498,32.8 µM (inactive)
same,GI50,NCI-H23,> 100 µM (inactive)
same,GI50,DMS-114,10.4 µM (inactive)
same,GI50,KM-20L2,> 100 µM (inactive)
same,GI50,OVCAR-5,> 100 µM (inactive)
same,GI50,A549,75.9 µM (inactive)
same,GI50,DLD-1,> 100 µM (inactive)
same,GI50,RXF 393,> 100 µM (inactive)
same,GI50,UACC-257,> 100 µM (inactive)
same,GI50,SK-MEL-28,> 100 µM (inactive)
CC(c1ccccc1)N1CC(C)(c2ccccc2)N(O)C(c2ccccc2)C1C (stereo not given),GI50,EKVX,13.5 µM (inactive)
same,GI50,SK-OV-3,22.8 µM (inactive)
same,GI50,SF-539,5.73 µM (inactive)
same,GI50,ACHN,3.59 µM (inactive)
same,GI50,786-0,5.92 µM (inactive)
same,GI50,TK-10,17.1 µM (inactive)
same,GI50,SK-MEL-5,7.82 µM (inactive)
same,GI50,Malme-3M,18.8 µM (inactive)
same,GI50,IGROV-1,7.45 µM (inactive)
same,GI50,HT-29,23.4 µM (inactive)
same,GI50,COLO 205,11.1 µM (inactive)
same,GI50,HCT-116,3.38 µM (inactive)
same,GI50,RXF 631,12.6 µM (inactive)
same,GI50,RPMI-8226,3.75 µM (inactive)
same,GI50,HOP-62,15.5 µM (inactive)
same,GI50,OVCAR-3,11.6 µM (inactive)
same,GI50,SW-620,12.1 µM (inactive)
same,GI50,SNB-19,5.92 µM (inactive)
same,GI50,SK-MEL-2,5.42 µM (inactive)
same,GI50,LXFL 529,9.06 µM (inactive)
same,GI50,UO-31,3.23 µM (inactive)
same,GI50,KM12,8 µM (inactive)
same,GI50,U-251,13.1 µM (inactive)
same,GI50,SNB-75,6.03 µM (inactive)
same,GI50,LOX IMVI,12.2 µM (inactive)
same,GI50,CCRF-CEM,5.66 µM (inactive)
same,GI50,NCI-H460,7.29 µM (inactive)
same,GI50,HL-60,3.52 µM (inactive)
same,GI50,SNB-78,15.1 µM (inactive)
same,GI50,HOP-92,2.21 µM (inactive)
same,GI50,OVCAR-8,9.91 µM (inactive)
same,GI50,SF-295,7.85 µM (inactive)
same,GI50,SF-268,4.15 µM (inactive)
same,GI50,HOP-18,17.7 µM (inactive)
same,GI50,DMS-273,7.93 µM (inactive)
same,GI50,HCC 2998,11.2 µM (inactive)
same,GI50,M19-MEL,> 10 µM (inactive)
same,GI50,MOLT-4,3.47 µM (inactive)
same,GI50,NCI-H23,8.04 µM (inactive)
same,GI50,DMS-114,5.33 µM (inactive)
same,GI50,A498,18 µM (inactive)
same,GI50,KM-20L2,4.39 µM (inactive)
same,GI50,OVCAR-5,16.9 µM (inactive)
same,GI50,A549,7.01 µM (inactive)
same,GI50,DLD-1,23.7 µM (inactive)
same,GI50,NCI-H522,6.4 µM (inactive)
same,GI50,RXF 393,4.41 µM (inactive)
same,GI50,K562,7.28 µM (inactive)
same,GI50,UACC-257,13.5 µM (inactive)
same,GI50,SK-MEL-28,4.08 µM (inactive)
